The record followed here is ChEMBL document CHEMBL1151413 (J Nat Prod, 1983).

Assay [1] relates to Ileum. The experiment in a line: Inhibition of acetylcholine-induced guinea pig ileum contraction at 5 ug/ml after 15 mins. The format is functional, tissue-based. The following applies: Cavia porcellus.
Assay [2] relates to Ileum. The assay can be described thus: Inhibition of acetylcholine-induced guinea pig ileum contraction at 10 ug/ml after 15 mins. The following applies: Cavia porcellus. Format: functional, tissue-based.
In assay [3] the test system is Ileum. The experiment in a line: Inhibition of acetylcholine-induced guinea pig ileum contraction assessed as residual activity at 5 ug/ml after 30 to 50 mins relative to control. The format is functional, Cavia porcellus.
Assay [4] has as its system Ileum. The assay can be described thus: Inhibition of acetylcholine-induced guinea pig ileum contraction assessed as residual activity at 10 ug/ml after 30 to 50 mins relative to control. The format is functional, Cavia porcellus.
Assay [5] has as its system Ileum. The assay can be described thus: Inhibition of histamine-induced guinea pig ileum contraction. Conditions: Cavia porcellus, read-out: pA2 (converted).
The test system of assay [6] is Ileum. The experiment in a line: Inhibition of BaCl2-induced guinea pig ileum contraction at 10 ug/ml after 15 mins. Format: functional, tissue-based. Conditions: Cavia porcellus.
The test system of assay [7] is Ileum. The experiment in a line: Inhibition of acetylcholine-induced guinea pig ileum contraction. Format: functional, tissue-based. The following applies: Cavia porcellus, TDE = time-dependent effect.
Assay [8] relates to Ileum. The experiment in a line: Inhibition of coaxially-induced guinea pig ileum contraction at 10 ug/ml. The format is functional, tissue-based. The following applies: Cavia porcellus, TDE = time-dependent effect.
Assay [9] deals with Platelet. The experiment in a line: Antiaggregation activity against ADP-induced rabbit platelet aggregation at 10 ug/ml. Format: functional, cell-based. Conditions: Oryctolagus cuniculus, TDE = time-dependent effect.
Assay [10] has as its system Platelet. The experiment in a line: Antiaggregation activity against arachidonic acid-induced rabbit platelet aggregation at 10 ug/ml. Format: functional, cell-based. The following applies: Oryctolagus cuniculus, TDE = time-dependent effect.
For assay [11], the system named is Platelet. The assay can be described thus: Disaggregation activity against ADP-induced rabbit platelet aggregation at 10 ug/ml relative to ADP response. The following applies: Oryctolagus cuniculus. The format is functional, cell-based.
Assay [12] relates to Platelet. The assay can be described thus: Disaggregation activity against arachidonic acid-induced rabbit platelet aggregation at 10 ug/ml relative to arachidonic acid response. The format is functional, cell-based. Conditions: Oryctolagus cuniculus.

Calls of active or inactive are those of the source. The rule behind the calls is not given here.

Consider `C=C[C@@]12COC(=O)C(=C)[C@@H]1[C@H]1OC(=O)C(=C)[C@@H]1[C@@H](O)C2` [VERNOLEPIN], for which the result in assay [1], in assay [2] and in assay [6] was inactive. Besides, the Activity is <40% in assay [3]; <20% in assay [4]; “tde” in assay [7]; “tde” in assay [8]; “tde” in assay [9]; “tde” in assay [10]. The Kb in [5] was 2450 nM. Besides, the result in assay [11] and in assay [12] was Active.
